# Values quoted from earlier work, collected in patent US20060198888A1, “Tolperisone-containing pharmaceutical preparation with controllable active-substance release for oral administration” (Sanochemia Pharmazeutika AG, priority 2004, published 2006).
# Where two headings read alike, the source gives them in different places.
# Tests used:
# [1] = rat
# [2] = JP-A-53-40779
structure (smiles),measurement,setting,value
Cc1ccc(C(=O)C(C)CN2CCCCC2)cc1 (stereo not drawn) [R(−) tolperisone],fraction converted by in-vivo inversion into S(+) tolperisone,[1],up to 20%
same,pharmacological effect,[2]; listed as 1-tolperisone,vaso- or bronchodilatory effect
Cc1ccc(C(=O)C(C)CN2CCCCC2)cc1 (stereo not drawn) [S(+) tolperisone],extent of in-vivo inversion into R(−) tolperisone,[1],up to 20%
same,pharmacological effect,[2]; listed as d-tolperisone,muscle-relaxing effect
